From ChEMBL document CHEMBL3885861, “Open TG-GATES”

Species: Rattus norvegicus
Assay: Open TG-GATES - Regimen: Single
Format: toxicity, organism-based, Sprague-Dawley
Design: regimen Single, gender Male, age 6 weeks
Settings: in vivo, po, 300 mg/kg, route gavage, dose level High; for APTT / Bas / Eos / Fbg / Hb / Ht / Lym / MCH / MCHC / MCV / Mono / Neu / PT / Plat / RBC / Ret / WBC: tissue Blood; for KIDNEY_L / KIDNEY_R / KIDNEY_TOTAL: tissue Kidney; for LIVER: tissue Liver; for A/G / ALP / ALT / AST / BUN / CRE / Ca / Cl / DBIL / GLC / IP / K / LDH / Na / PL / RALB / TBIL / TC / TG / TP / gamma-GTP: tissue Plasma

SMILES: CCC1(c2ccccc2)C(=O)NC(=O)NC1=O [PHENOBARBITAL]
- TERMINAL_BW (3 h): 225.3 g
- APTT (3 h): 22 s
- Bas (3 h): 0.2%
- Eos (3 h): 1%
- Fbg (3 h): 202.2 mg/dL
- Hb (3 h): 13.6 g/dL
- Ht (3 h): 37.8%
- Lym (3 h): 78.6%
- MCH (3 h): 21.9 pg
- MCHC (3 h): 36%
- MCV (3 h): 61.1 fL
- Mono (3 h): 2.8%
- Neu (3 h): 16.6%
- PT (3 h): 12.3 s
- Plat (3 h): 122.8 x10_4/uL
- RBC (3 h): 619.4 x10_4/ul
- Ret (3 h): 7.8%
- WBC (3 h): 75.1 x10_2/uL
- KIDNEY_L (3 h): 1 g
- KIDNEY_R (3 h): 1 g
- KIDNEY_TOTAL (3 h): 2.1 g
- LIVER (3 h): 10 g
- A/G (3 h): 1.6
- ALP (3 h): 833 IU/L
- ALT (3 h): 40.2 IU/L
- AST (3 h): 73 IU/L
- BUN (3 h): 8 mg/dL
- CRE (3 h): 0.3 mg/dL
- Ca (3 h): 10.5 mg/dL
- Cl (3 h): 100.6 meq/L
- DBIL (3 h): 0.064 mg/dL
- GLC (3 h): 183.2 mg/dL
- IP (3 h): 10.3 mg/dL
- K (3 h): 4.1 meq/L
- LDH (3 h): 142 IU/L
- Na (3 h): 140.6 meq/L
- PL (3 h): 152 mg/dL
- RALB (3 h): 3.2 g/dL
- TBIL (3 h): 0.1 mg/dL
- TC (3 h): 77 mg/dL
- TG (3 h): 57.2 mg/dL
- TP (3 h): 5.1 g/dL
- gamma-GTP (3 h): 0.8 IU/L
- TERMINAL_BW (6 h): 221.9 g
- APTT (6 h): 20.5 s
- Bas (6 h): 0%
- Eos (6 h): 1%
- Fbg (6 h): 219 mg/dL
- Hb (6 h): 14.2 g/dL
- Ht (6 h): 39.1%
- Lym (6 h): 76.8%
- MCH (6 h): 21.8 pg
- MCHC (6 h): 36.3%
- MCV (6 h): 60.2 fL
- Mono (6 h): 3.4%
- Neu (6 h): 17.6%
- PT (6 h): 12 s
- Plat (6 h): 120.7 x10_4/uL
- RBC (6 h): 649.4 x10_4/ul
- Ret (6 h): 7.7%
- WBC (6 h): 62.8 x10_2/uL
- KIDNEY_L (6 h): 1 g
- KIDNEY_R (6 h): 1 g
- KIDNEY_TOTAL (6 h): 2 g
- LIVER (6 h): 9.4 g
- A/G (6 h): 1.6
- ALP (6 h): 672.6 IU/L
- ALT (6 h): 29.2 IU/L
- AST (6 h): 58.4 IU/L
- BUN (6 h): 8.6 mg/dL
- CRE (6 h): 0.3 mg/dL
- Ca (6 h): 10.5 mg/dL
- Cl (6 h): 100.4 meq/L
- DBIL (6 h): 0.07 mg/dL
- GLC (6 h): 176 mg/dL
- IP (6 h): 9.5 mg/dL
- K (6 h): 4.2 meq/L
- LDH (6 h): 162.2 IU/L
- Na (6 h): 139.2 meq/L
- PL (6 h): 142.4 mg/dL
- RALB (6 h): 3.2 g/dL
- TBIL (6 h): 0.1 mg/dL
- TC (6 h): 74.4 mg/dL
- TG (6 h): 44.2 mg/dL
- TP (6 h): 5.2 g/dL
- gamma-GTP (6 h): 1.2 IU/L
- TERMINAL_BW (9 h): 219.7 g
- APTT (9 h): 19.3 s
- Bas (9 h): 0%
- Eos (9 h): 0.8%
- Fbg (9 h): 219.4 mg/dL
- Hb (9 h): 13.8 g/dL
- Ht (9 h): 38.3%
- Lym (9 h): 71.8%
- MCH (9 h): 22 pg
- MCHC (9 h): 36%
- MCV (9 h): 60.9 fL
- Mono (9 h): 3.6%
- Neu (9 h): 22%
- PT (9 h): 12.4 s
- Plat (9 h): 125.2 x10_4/uL
- RBC (9 h): 630.2 x10_4/ul
- Ret (9 h): 7.7%
- WBC (9 h): 73.7 x10_2/uL
- KIDNEY_L (9 h): 1 g
- KIDNEY_R (9 h): 1 g
- KIDNEY_TOTAL (9 h): 1.9 g
- LIVER (9 h): 8.6 g
- A/G (9 h): 1.5
- ALP (9 h): 558.2 IU/L
- ALT (9 h): 35.8 IU/L
- AST (9 h): 78 IU/L
- BUN (9 h): 9 mg/dL
- CRE (9 h): 0.3 mg/dL
- Ca (9 h): 10.3 mg/dL
- Cl (9 h): 99.6 meq/L
- DBIL (9 h): 0.064 mg/dL
- GLC (9 h): 186.2 mg/dL
- IP (9 h): 9.7 mg/dL
- K (9 h): 4.2 meq/L
- LDH (9 h): 170.4 IU/L
- Na (9 h): 139.4 meq/L
- PL (9 h): 137.8 mg/dL
- RALB (9 h): 3 g/dL
- TBIL (9 h): 0.1 mg/dL
- TC (9 h): 74.8 mg/dL
- TG (9 h): 29.8 mg/dL
- TP (9 h): 5 g/dL
- gamma-GTP (9 h): 1 IU/L
- TERMINAL_BW (24 h): 201.5 g
- APTT (24 h): 24.3 s
- Bas (24 h): 1%
- Eos (24 h): 1%
- Fbg (24 h): 207 mg/dL
- Hb (24 h): 16.1 g/dL
- Ht (24 h): 44.2%
- Lym (24 h): 82.3%
- MCH (24 h): 22 pg
- MCHC (24 h): 36.6%
- MCV (24 h): 60.1 fL
- Mono (24 h): 2.3%
- Neu (24 h): 13%
- PT (24 h): 12.3 s
- Plat (24 h): 145.9 x10_4/uL
- RBC (24 h): 735.3 x10_4/ul
- Ret (24 h): 6.5%
- WBC (24 h): 84.5 x10_2/uL
- KIDNEY_L (24 h): 1 g
- KIDNEY_R (24 h): 1 g
- KIDNEY_TOTAL (24 h): 2 g
- LIVER (24 h): 7.7 g
- A/G (24 h): 1.6
- ALP (24 h): 449.7 IU/L
- ALT (24 h): 21 IU/L
- AST (24 h): 53 IU/L
- BUN (24 h): 9 mg/dL
- CRE (24 h): 0.3 mg/dL
- Ca (24 h): 10.5 mg/dL
- Cl (24 h): 100 meq/L
- DBIL (24 h): 0.06 mg/dL
- GLC (24 h): 141 mg/dL
- IP (24 h): 9 mg/dL
- K (24 h): 4.6 meq/L
- LDH (24 h): 113.3 IU/L
- Na (24 h): 139.3 meq/L
- PL (24 h): 100 mg/dL
- RALB (24 h): 3.2 g/dL
- TBIL (24 h): 0.1 mg/dL
- TC (24 h): 58.7 mg/dL
- TG (24 h): 13.3 mg/dL
- TP (24 h): 5.2 g/dL
- gamma-GTP (24 h): 1 IU/L
